Experimental findings from patent US12037354B2, “Cyclic pantetheine derivatives and uses thereof” (VectivBio Comet AG, priority 2018, dated 2024) are described below.

In the assay the test system is primary culture of rat embryo mesencephalic cells (microglia, astrocytes and neurons). The assay is described as follows: Neuroprotection against LPS damage (NO, TNF-α, IL-1β release, tyrosine hydroxylase positive neurons), Example 848. Type of assay: cell-based. To be noted: 10 uM; for % reversion of NO release from neurons: after 5 days of LPS exposure. On the procedure: Drug preparation. […] The stock solutions will be prepared 1000× the concentration in 100% DMSO. The final concentration of the vehicle (DMSO) is set at 0.1%.
Test animals. Pregnant Wistar rats (Janvier; France) are used for the study. They are group-housed and maintained in a room with controlled temperature (21-22° C.) and a reversed light-dark cycle (12 h/12 h; lights on: 17:30-05:30; lights off: 05:30-17:30) with food and water available ad libitum.
The protocol is performed in 3 independent cultures. For each culture, each condition is performed in sextuplicate.
Female rat of 15 days gestation is killed by cervical dislocation. Fetuses are removed from the uterus and their brains are harvested and placed in ice-cold medium (Leibovitz's L15 medium, Gibco). Only ventral mesencephalic flexure is used for the cell preparations. The midbrain is dissociated by trypsinization. The reaction is stopped, and the suspension is triturated and centrifuged. The pellet of dissociated cells is resuspended in culture medium consisted of DMEM-F12 (Gibco), containing 10% FBS (ATCC), 10% Horse serum (Gibco) and 2 mM L-glutamine (Gibco). Viable cells are counted and seeded on 96-well plates, precoated with poly-L-lysine. Cells are maintained in a humidified incubator at 37° C. in 5% CO2-95% air atmosphere. Half of the medium is changed on day 2 and day 5.
Treatment. On day 7, culture media are removed and replaced by new medium consisting of DMEM-F12 (Gibco) supplemented with 2% FBS (ATCC), 2% Horse serum (Gibco) and 2 mM L-glutamine (Gibco) and containing vehicle or test substances. After 1-hour exposure, LPS at 10 ng/ml is added and exposure further continued for 24 hours or 5 days period.
Inflammatory response measurement and neuronal death evaluation. NO production is measured in the media 24 h and 5 days after LPS exposure using the Griess reagent kit (Molecular Probes). The Griess reagent Assay is a colorimetric reaction assay which measures the conversion of a sulfanilic salt into an azo dye product by nitrite. Visible wavelength absorbance data is collected using a 96-well plate reader at 570 nm (Multiskan EX, Thermo Fisher, France).
IL-10 and TNF-α release are measured in the media 24 h after LPS exposure using the ELISA development kit (PeproTech). The ELISA plate, previously coated with anti-IL-10 or anti-TNF-α antibody at 1 μg/ml, is incubated 1 h with PBS containing 1% of BSA (bovine serum albumin). […] Visible wavelength absorbance data is collected using a 96-well plate reader at 405 nm with wavelength correction set at 650 nm (Multiskan EX, Thermo Fisher, France). […]
Statistical Analysis. The drug-induced effect on NO and cytokines is calculated by setting the response of the LPS-stimulated control as 100%. […]

For the compound `CC(=O)CC(=O)SCCNC(=O)CCNC(=O)[C@@H]1OP(=O)(O)OCC1(C)C` [Compound 42], the “% reversion of TH positive neurons” value (after 5 days of LPS exposure (Example 949)) is reported as no less than 15% and the “% reversion of TH positive neurons” value (after 5 days of LPS exposure (Example 950)) is no less than 50%. Besides, the “% reversion of NO release from neurons” value is no less than 10% (compared to LPS induction alone) and no less than 10% (LPS-induced NO release).
